Data from patent publication US7026344B2, “Treating sickle cell disease” (priority 2000, dated 2006).

Test system: human γ (Huγ) mRNA in K562 cells
Test: γ globin mRNA induction in K562 cells by RNase protection assay
Assay type: cell-based
Details: K562
Procedure: Cell Culture. K562 cells were grown in suspension cultures in RPMI-1640 containing 10% fetal bovine serum, penicillin (100 U/ml) and streptomycin (0.1 mg/ml in a humidified incubator at 37° C. in a 5%CO2/95% air atmosphere. The following experimental conditions were analyzed in triplicate with 2×10^6 cells per well: an untreated control, ZL dissolved in 0.1% dimethylsulfoximide (DMSO) at final concentrations of […], HU at […] and two positive controls hemin (50 mM) and sodium butyrate (NB) 2 mM. The K562 cells were induced for 72 hours then RNA isolated for further analysis. Cell viability was completed by 2% trypan blue exclusion at timnes 0 and 72 hours.
RNA Isolation. RNA was isolated using RNA Stat-60 (TEL-TEST “B”, Inc., Friendswood, Tex.) according to the manufacturer's instructions. In brief, cell pellets will be suspended in RNA Stat-60 (1 ml) and chloroform (200 μl), and the RNA extracted and precipitated with isopropanol.
RNase Protection Analysis. MRNA levels will be quantitated by RNase protection assay (RPA) with probes designed to yield protected fragments for human γ (Huγ)and the internal control glyceraldehydes-3-phosphate dehydrogenase (GAPD). Huγ mRNA levels were normalized to that of GAPD and compared to the untreated K562 cells. (Zar: Statistical Analysis, Englewood)
Several pharmacological hemoglobin F inducers such as HU, 5-azacytidine, erythropoietin, didox, and butyrate alter γ gene expression in culture. The induction of γ gene activity in culture is a good indicator of potential clinical usefulness. Therefore the capability of ZL to induce γ gene activity at the mRNA level was tested. K562 cells were cultured in ZL from 0 to 100 μM or HU (50μ to 100 μM) for 48 hours. Total cellular RNA was analyzed by RPA for γ mRNA levels. An increase in γ mRNA for ZL at 20 μM with a maximal response at 75 μM (FIG. 4A) was observed. The level of γ gene mRNA synthesis was quantitated relative to the internal control, CAPD. […] K562 cell viability was decreased 10% when measured using trypan blue exclusion at 75 μM and 100 μM concentrations for both ZL and HU. The level of γ gene induction was 3.9 fold and 10-fold for the positive controls NB and hemin, respectively.

| Molecule | level of γ gene induction (positive control hemin (50 µM)) [fold] | level of γ gene induction (positive control NB 2 mM) [fold] |
| --- | --- | --- |
| hemin | 10 | – |
| CCCC(=O)[O-].[Na+] [NB, sodium butyrate] | – | 3.9 |
